This assay addresses T1, 'L35' VvCYP76F14 (Vitis vinifera, UniProt A0A1B2ZBX8, S46N/I107T/K111N/Q175R/V222L/N286S/T325K/G378E/A380T/D383E/A386T).
T1 construct: 499-residue CDS, synthesized (GenScript), E. coli BL21(DE3); purification and tags not described; Arabidopsis CPR ATR1 as redox partner
The experiment in a line: substrate remnant by UPLC-MS. The assay is classed as cell-based. Particulars: Arabidopsis CPR ATR1 as redox partner; 26 °C, 1 h; recombinant E. coli protein, purification not described.

Each structure is given as a SMILES string.

The results in this text go back to publication PMC11593623, “D299T Mutation in CYP76F14 Led to a Decrease in Wine Bouquet Precursor Production in Wine Grape” (Genes, 2024).

T1 sequence (A0A1B2ZBX8 entry or part of it with the stated changes): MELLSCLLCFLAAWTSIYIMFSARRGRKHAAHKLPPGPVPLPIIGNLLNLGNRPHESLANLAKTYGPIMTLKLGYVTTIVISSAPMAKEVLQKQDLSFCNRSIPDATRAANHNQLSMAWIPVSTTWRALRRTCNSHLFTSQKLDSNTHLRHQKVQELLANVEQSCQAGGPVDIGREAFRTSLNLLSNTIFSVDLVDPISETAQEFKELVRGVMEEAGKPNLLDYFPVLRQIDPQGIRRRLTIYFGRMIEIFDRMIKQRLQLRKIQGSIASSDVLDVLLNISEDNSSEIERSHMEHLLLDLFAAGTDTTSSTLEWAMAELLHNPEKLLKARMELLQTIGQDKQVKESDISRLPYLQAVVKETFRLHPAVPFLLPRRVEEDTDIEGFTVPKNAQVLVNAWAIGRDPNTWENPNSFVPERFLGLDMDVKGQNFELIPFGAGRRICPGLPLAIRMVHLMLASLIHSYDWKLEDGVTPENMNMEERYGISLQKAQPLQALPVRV

In the case of `C=CC(C)(O)CC/C=C(\C)CO` (centres unmarked) [(E)-8-hydroxylinalool], the “substrate remnant by UPLC-MS” value was “‘L35’ VvCYP76F14 exhibited lower remnants of linalool and (E)-8-hydroxylinalool substrates”.

Turning to `C=CC(C)(O)CCC=C(C)C` (centres unmarked) [linalool], the “substrate remnant by UPLC-MS” value was “‘L35’ VvCYP76F14 exhibited lower remnants of linalool and (E)-8-hydroxylinalool substrates”.
